Test [1] addresses T1, Acetylcholine receptor subunit beta-like 2 (Drosophila melanogaster, UniProt P25162).
T1 sequence (P25162 whole entry): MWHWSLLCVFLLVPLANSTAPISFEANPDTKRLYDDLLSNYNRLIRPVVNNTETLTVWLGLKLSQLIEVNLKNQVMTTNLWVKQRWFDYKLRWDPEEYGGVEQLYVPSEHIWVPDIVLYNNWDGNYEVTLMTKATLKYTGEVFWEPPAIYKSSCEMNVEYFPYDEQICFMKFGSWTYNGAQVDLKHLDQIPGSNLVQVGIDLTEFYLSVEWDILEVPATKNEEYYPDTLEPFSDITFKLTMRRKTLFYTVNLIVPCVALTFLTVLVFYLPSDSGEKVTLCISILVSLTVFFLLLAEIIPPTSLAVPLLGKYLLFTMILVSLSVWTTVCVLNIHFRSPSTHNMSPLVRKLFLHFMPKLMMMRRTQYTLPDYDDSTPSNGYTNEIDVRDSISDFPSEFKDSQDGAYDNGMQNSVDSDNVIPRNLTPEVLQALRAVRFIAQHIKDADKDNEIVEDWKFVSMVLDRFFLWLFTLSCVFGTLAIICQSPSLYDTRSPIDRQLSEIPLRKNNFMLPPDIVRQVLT
Nature of the test: Displacement of [3H]IMI from nicotinic acetylcholine receptor in Drosophila melanogaster head membrane after 90 min by filter binding assay. (In general: Loss of bound radioactivity is the signal in a displacement assay; it reports binding, not function.)

Test [2] has as its target T2, Nicotinic acetylcholine receptor alpha 5 subunit (Musca domestica, UniProt A9XFY4).
T2 sequence (A9XFY4 whole entry): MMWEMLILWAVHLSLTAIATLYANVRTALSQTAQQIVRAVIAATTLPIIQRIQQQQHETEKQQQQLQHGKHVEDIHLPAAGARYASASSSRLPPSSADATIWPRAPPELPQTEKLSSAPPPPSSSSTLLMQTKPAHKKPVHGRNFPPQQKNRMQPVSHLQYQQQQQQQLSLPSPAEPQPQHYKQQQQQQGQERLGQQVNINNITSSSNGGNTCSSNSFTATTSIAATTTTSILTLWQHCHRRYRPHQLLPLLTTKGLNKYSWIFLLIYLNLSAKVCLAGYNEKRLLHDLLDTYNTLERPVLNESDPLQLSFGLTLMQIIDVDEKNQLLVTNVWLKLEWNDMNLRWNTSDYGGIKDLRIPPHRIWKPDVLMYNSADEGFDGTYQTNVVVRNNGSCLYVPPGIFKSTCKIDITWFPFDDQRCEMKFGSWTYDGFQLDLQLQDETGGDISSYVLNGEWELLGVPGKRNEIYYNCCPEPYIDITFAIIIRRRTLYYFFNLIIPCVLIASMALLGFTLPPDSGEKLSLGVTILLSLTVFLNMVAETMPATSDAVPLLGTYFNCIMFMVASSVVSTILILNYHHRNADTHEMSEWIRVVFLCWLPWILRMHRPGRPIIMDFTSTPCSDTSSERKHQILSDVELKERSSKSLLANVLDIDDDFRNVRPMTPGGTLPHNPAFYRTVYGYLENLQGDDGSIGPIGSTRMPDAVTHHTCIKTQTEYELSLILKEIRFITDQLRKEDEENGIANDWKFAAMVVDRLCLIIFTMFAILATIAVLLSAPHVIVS
Nature of the test: Displacement of [3H]IMI from nicotinic acetylcholine receptor in Musca domestica (house fly) head membrane after 90 min by filter binding assay.

Test [3] can be described thus: Displacement of [3H]IMI from nicotinic acetylcholine receptor in Myzus persicae (green peach aphid) whole body membrane after 90 min by filter binding assay.
Test [4] deals with T3, Acetylcholine receptor subunit beta-like 2 (Drosophila melanogaster) (UniProt P25162).
T3 sequence (whole entry): T1 sequence (P25162 whole entry)
Nature of the test: Competitive inhibition of nicotinic acetylcholine receptor in Drosophila melanogaster head membrane using [3H]IMI as substrate incubated for 5 min prior to substrate addition measured after 90 min by Sctachard plot analysis.

A further test has as its system Myzus persicae. The test can be described thus: Competitive inhibition of nicotinic acetylcholine receptor in Myzus persicae (green peach aphid) whole body membrane using [3H]IMI as substrate incubated for 5 min prior to substrate addition measured after 90 min by Sctachard plot analysis.

Structures are written as SMILES. pIC50: −log10 of the molar value. The source made the active and inactive calls. The calls are words filed in the database; no cut-off is given here.

For the compound `O=[N+]([O-])/N=C1\NCCN1Cc1ccc(Cl)nc1` [IMIDACLOPRID], the pIC50 in test [1] was 8.64; in test [2] it was 8.59; in test [3] it was 8.51.
`C/C(=N\C#N)N(C)Cc1cnc(Cl)s1`: the pIC50 is 6.81 in test [1] and 7.19 in test [3].
In the case of `CN1CN(C)/C(=N\[N+](=O)[O-])N(Cc2cnc(Cl)s2)C1`, the pIC50 in test [1] and in test [3] was less than 6.00 throughout.
`CCN(Cc1cnc(Cl)s1)/C(=C/[N+](=O)[O-])NC`: the negative-log IC50 (pIC50) in test [1] was 6.80; in test [3] it was 6.82.
Consider `C/N=C(\NCc1ccc(Cl)nc1)N[N+](=O)[O-]`, for which the results for the negative logarithm of the IC50 (pIC50) in test [1], in test [2] and in test [3] were 8.13, 8.15 and 7.82, respectively.
The compound `CN/C(=N/CC1CCOC1)N[N+](=O)[O-]` (stereo unspecified) [DINOTEFURAN] gave a pIC50 in test [1] of 5.30.
As to `O=[N+]([O-])/N=C1\NCCN1Cc1cnc(Cl)s1` [IMIDACLOTHIZ], the pIC50 in test [1] is 7.77; in test [2] it was 7.92; in test [3], 7.68.
For `C/C(=N\C#N)N(C)Cc1ccc(Cl)nc1` [ACETAMIPRID], the pIC50 in test [1] is 8.08; in test [3], 8.00.
Turning to `CCN(Cc1ccc(Cl)nc1)/C(=C/[N+](=O)[O-])NC` [NITENPYRAM], the values for the pIC50 in test [1] and in test [3] were 7.96 and 7.68, respectively.
The corresponding values for `O=[N+]([O-])C=C1NCCCS1` are 5.33 and 5.46.
As to `CN/C(=N\[N+](=O)[O-])NCc1cnc(Cl)s1` [CLOTHIANIDINE], the inhibition result (in test [4]; with Myzus persicae) was “Active” each time. For the same compound, the pIC50 in test [1] was 8.66; in test [2], 8.74; in test [3], 8.04.
As for `N#C/N=C1\SCCN1Cc1ccc(Cl)nc1` [THIACLOPRID], the negative-log IC50 (pIC50) in test [1] is 8.12; in test [3], 8.47.
On to `O=[N+]([O-])/N=C1\NCOCN1Cc1ccc(Cl)nc1`, for which the values for the pIC50 in test [1], in test [2] and in test [3] were 7.66, 7.85 and 7.89, respectively.
With `CN1CN(C)/C(=N\[N+](=O)[O-])N(Cc2ccc(Cl)nc2)C1`, the pIC50 in test [1] and in test [3] was less than 6.00 each time.
`N#C/N=C1\SCCN1Cc1cnc(Cl)s1`: the pIC50 is 7.03 in test [1] and 7.25 in test [3].
Consider `O=[N+]([O-])/N=C1\NCOCN1Cc1cnc(Cl)s1` [DESMETHYLTHIAMETHOXAM], for which the inhibition result (in test [4]; in the test with Myzus persicae) was “Active” in each case. For the same compound, the pIC50 was 7.70 in test [1], 7.80 in test [2] and 8.00 in test [3].

As a reminder, the pIC50 is the IC50 on a negative log10 scale, so that one unit is a factor of ten. A low value points to a high IC50.

Values taken from ChEMBL document CHEMBL3045369 (J Neurochem, 2000).
